Data: ChEMBL document CHEMBL5500369, “Design, synthesis, and biological evaluation of 5-(1H-indol-5-yl)isoxazole-3-carboxylic acids as novel xanthine oxidase inhibitors” (Eur J Med Chem, 2024)

Columns and labels:
[1] = molecular target: T1, Xanthine dehydrogenase/oxidase (Bos taurus, UniProt P80457); test: Inhibition of bovine xanthine oxidase using xanthine as substrate by measuring uric acid formation measured 30 secs interval for 5 mins by spectrophotometry analysis
[2] = molecular target: T1, Xanthine dehydrogenase/oxidase; test: Inhibition of bovine xanthine oxidase using xanthine as substrate at 10.0 uM measured 30 secs interval for 5 mins by spectrophotometry relative to control; details: cattle
[3] = Binding affinity to bovine xanthine oxidase/xanthine substrate complex assessed as inhibition constant; design: species or system Bos taurus
[4] = molecular target: T1, Xanthine dehydrogenase/oxidase; test: Potency index, ratio of Allopurinol IC50 to test compound IC50 for inhibition of bovine xanthine oxidase using xanthine as substrate by measuring uric acid formation measured 30 secs interval for 5 mins by spectrophotometry analysis; details: cattle
[5] = molecular target: T1, Xanthine dehydrogenase/oxidase; test: Mixed type inhibition of bovine xanthine oxidase assessed as increase in Km with decrease in Vmax using xanthine as substrate at upto 0.30 uM by Lineweaver-Burk plot analysis; details: cattle, 0.3 µM
[6] = molecular target: T1, Xanthine dehydrogenase/oxidase; test: Binding affinity to bovine xanthine oxidase assessed as inhibition constant

T1 sequence (P80457 whole entry): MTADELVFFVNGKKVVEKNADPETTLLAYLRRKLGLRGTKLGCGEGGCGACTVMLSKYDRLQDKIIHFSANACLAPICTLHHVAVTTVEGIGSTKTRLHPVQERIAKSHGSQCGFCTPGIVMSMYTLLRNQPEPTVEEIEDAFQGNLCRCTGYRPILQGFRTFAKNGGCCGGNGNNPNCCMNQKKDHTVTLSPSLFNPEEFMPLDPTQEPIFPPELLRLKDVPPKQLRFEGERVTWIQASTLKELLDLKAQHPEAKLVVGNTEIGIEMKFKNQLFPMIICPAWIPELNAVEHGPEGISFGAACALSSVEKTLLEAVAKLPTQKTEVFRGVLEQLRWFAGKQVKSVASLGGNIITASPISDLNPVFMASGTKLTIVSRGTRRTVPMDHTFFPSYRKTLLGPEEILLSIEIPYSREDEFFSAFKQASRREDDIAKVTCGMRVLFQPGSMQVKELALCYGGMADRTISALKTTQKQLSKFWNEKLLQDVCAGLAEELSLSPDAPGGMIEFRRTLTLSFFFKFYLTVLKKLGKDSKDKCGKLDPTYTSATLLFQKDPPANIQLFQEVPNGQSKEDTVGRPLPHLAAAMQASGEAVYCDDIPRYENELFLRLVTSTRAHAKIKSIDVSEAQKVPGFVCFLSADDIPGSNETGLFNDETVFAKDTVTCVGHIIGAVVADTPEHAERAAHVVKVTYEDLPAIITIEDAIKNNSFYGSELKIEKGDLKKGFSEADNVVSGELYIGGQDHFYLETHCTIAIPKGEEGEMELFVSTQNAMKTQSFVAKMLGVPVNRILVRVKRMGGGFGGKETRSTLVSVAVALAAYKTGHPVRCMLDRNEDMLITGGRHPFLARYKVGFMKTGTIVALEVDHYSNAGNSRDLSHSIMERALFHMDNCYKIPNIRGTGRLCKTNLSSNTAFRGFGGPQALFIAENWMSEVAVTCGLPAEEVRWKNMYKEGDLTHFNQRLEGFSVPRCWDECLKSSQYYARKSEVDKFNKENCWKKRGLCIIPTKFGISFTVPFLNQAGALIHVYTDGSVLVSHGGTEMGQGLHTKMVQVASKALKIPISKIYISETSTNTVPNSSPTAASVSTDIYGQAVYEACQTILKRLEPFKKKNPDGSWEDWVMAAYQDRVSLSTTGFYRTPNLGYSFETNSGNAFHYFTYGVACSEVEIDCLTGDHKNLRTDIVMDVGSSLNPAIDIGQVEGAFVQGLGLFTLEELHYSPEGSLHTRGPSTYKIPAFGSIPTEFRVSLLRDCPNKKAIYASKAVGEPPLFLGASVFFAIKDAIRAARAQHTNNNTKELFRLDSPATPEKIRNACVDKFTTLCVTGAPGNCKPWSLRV

| Compound | IC50 [1] | further results |
| --- | --- | --- |
| N#Cc1cn(Cc2ccccc2Cl)c2ccc(-c3cc(C(=O)O)no3)cc12 | 0.2 µM |  |
| CC(C)CCn1cc(C#N)c2cc(-c3cc(C(=O)O)no3)ccc21 | 0.38 µM |  |
| Cc1ccccc1Cn1cc(C#N)c2cc(-c3cc(C(=O)O)no3)ccc21 | 0.26 µM |  |
| CC(C)=Cn1ccc2cc(-c3cc(C(=O)O)no3)ccc21 |  | inhibition at 10 µM [2]: < 50% |
| N#Cc1cn(Cc2ccc(F)cc2)c2ccc(-c3cc(C(=O)O)no3)cc12 | 0.6 µM |  |
| N#Cc1cn(Cc2ccc(Cl)cc2)c2ccc(-c3cc(C(=O)O)no3)cc12 | 1.26 µM |  |
| CCCCCn1cc(C#N)c2cc(-c3cc(C(=O)O)no3)ccc21 | 0.6 µM |  |
| CCCCn1cc(C#N)c2cc(-c3cc(C(=O)O)no3)ccc21 | 0.54 µM |  |
| N#Cc1cn(Cc2ccccc2F)c2ccc(-c3cc(C(=O)O)no3)cc12 | 0.31 µM |  |
| N#Cc1cn(CC2CCCC2)c2ccc(-c3cc(C(=O)O)no3)cc12 | 0.27 µM |  |
| N#Cc1cn(Cc2ccc(Br)cc2)c2ccc(-c3cc(C(=O)O)no3)cc12 | 1.17 µM |  |
| N#Cc1cn(Cc2cccc(F)c2)c2ccc(-c3cc(C(=O)O)no3)cc12 | 1.29 µM |  |
| N#Cc1cn(Cc2cccc(Cl)c2)c2ccc(-c3cc(C(=O)O)no3)cc12 | 1.84 µM |  |
| N#Cc1cn(Cc2ccccc2)c2ccc(-c3cc(C(=O)O)no3)cc12 | 1.03 µM |  |
| N#Cc1cn(C2CCC2)c2ccc(-c3cc(C(=O)O)no3)cc12 | 0.25 µM |  |
| N#Cc1cn(C2CCCC2)c2ccc(-c3cc(C(=O)O)no3)cc12 | 0.14 µM |  |
| CCOC(=O)c1cc(-c2ccc3c(c2)c(C#N)cn3C(C)C)on1 |  | inhibition at 10 µM [2]: < 50% |

Second part, led by results:

| IC50 [1] | Compound | further results |
| --- | --- | --- |
| 0.19 µM | CC(C)=Cn1cc(C#N)c2cc(-c3cc(C(=O)O)no3)ccc21 |  |
| 3.1 µM | N#Cc1c[nH]c2ccc(-c3cc(C(=O)O)no3)cc12 |  |
| 0.56 µM | CCn1cc(C#N)c2cc(-c3cc(C(=O)O)no3)ccc21 |  |
| 0.13 µM | CC(C)n1cc(C#N)c2cc(-c3cc(C(=O)O)no3)ccc21 | Ki [3]: 0.36 µM; Ratio IC50 [4]: 22; inhibition (INH) [5]: Active; Ki [6]: 0.04 µM |
| 0.24 µM | CC(C)Cn1cc(C#N)c2cc(-c3cc(C(=O)O)no3)ccc21 |  |
| 0.57 µM | CC#Cn1cc(C#N)c2cc(-c3cc(C(=O)O)no3)ccc21 |  |
| 0.39 µM | C=CCn1cc(C#N)c2cc(-c3cc(C(=O)O)no3)ccc21 |  |
| 0.32 µM | CCCn1cc(C#N)c2cc(-c3cc(C(=O)O)no3)ccc21 |  |
